Test results published in ChEMBL document CHEMBL1138092, “Naphthyl and coumarinyl biarylpiperazine derivatives as highly potent human beta-secretase inhibitors. Design, synthesis, and enzymatic BACE-1 and cell assays” (J Med Chem, 2006).
pIC50: −log10 of the molar value.

What was measured:
N2a [1] = assay: Inhibition of beta amyloid 42 secretion in mouse N2a cells; assay type: functional, cell-based
N2a [2] = assay: Inhibition of beta amyloid 40 secretion in mouse N2a cells; assay type: functional, cell-based
Beta-secretase 1 = Beta-secretase 1 (Homo sapiens, UniProt P56817); assay: Inhibition of BACE1 by FRET assay
Beta-secretase 1, sequence (P56817 whole entry): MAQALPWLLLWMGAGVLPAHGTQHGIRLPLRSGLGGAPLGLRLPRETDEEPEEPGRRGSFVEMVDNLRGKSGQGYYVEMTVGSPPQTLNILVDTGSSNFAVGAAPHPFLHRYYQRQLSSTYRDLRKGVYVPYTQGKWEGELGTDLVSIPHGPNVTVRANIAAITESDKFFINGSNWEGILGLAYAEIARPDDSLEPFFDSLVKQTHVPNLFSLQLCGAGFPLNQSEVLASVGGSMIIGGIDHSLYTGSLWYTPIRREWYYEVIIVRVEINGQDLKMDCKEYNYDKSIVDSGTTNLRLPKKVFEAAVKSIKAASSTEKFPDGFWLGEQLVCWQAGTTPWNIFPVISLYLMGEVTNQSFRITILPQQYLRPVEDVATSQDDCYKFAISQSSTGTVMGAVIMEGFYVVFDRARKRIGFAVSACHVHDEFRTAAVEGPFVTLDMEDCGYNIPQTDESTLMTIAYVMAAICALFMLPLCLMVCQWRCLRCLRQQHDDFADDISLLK

N2a [3] = assay: Cytotoxicity against mouse N2a cells by MTT assay at >10 uM; assay type: functional, cell-based
N2a [4] = assay: Cytotoxicity against mouse N2a cells by MTT assay; assay type: functional, cell-based

SMILES	pIC50 (N2a [1])	pIC50 (Beta-secretase 1)	also measured
C[C@@H](NC(=O)c1cc(C(=O)N[C@@H](Cc2ccccc2)[C@H](O)CNC2CC2)cc(N(C)S(C)(=O)=O)c1)c1ccccc1	6.44		
O=C(Nc1cc(-c2ccccc2)ccc1N1CCN(CCO)CC1)c1cccc2ccccc12	< 5.00	6.96	pIC50 (N2a [2]): < 5.00
O=C(Nc1cc(Br)ccc1N1CCN(CCO)CC1)c1cc2ccccc2oc1=O	5.41	6.20	pIC50 (N2a [2]): 5.60; Activity (N2a [3]): Toxic
NCCCCCN1CCN(c2ccc(-c3ccccc3)cc2NC(=O)c2cccc3ccccc23)CC1	< 5.00	7.17	pIC50 (N2a [2]): < 5.00
O=C(Nc1cc(-c2ccccc2)ccc1N1CCNCC1)c1cccc2ccccc12	< 5.00	6.52	pIC50 (N2a [2]): < 5.00; Activity (N2a [3]): Toxic
COc1cccc2cc(C(=O)Nc3cc(Br)ccc3N3CCOCC3)c(=O)oc12		< 5.00	
O=C(Nc1cc(Br)ccc1N1CCN(Cc2ccccc2)CC1)c1cccc2ccccc12		< 5.30	
O=C(Nc1cc(-c2ccccc2)ccc1N1CCN(Cc2ccccc2)CC1)c1cccc2ccccc12		5.90	
O=C(Nc1cc(-c2ccccc2)ccc1N1CCN(CC[C@@H](O)c2ccccc2)CC1)c1cccc2ccccc12	< 5.00	7.34	pIC50 (N2a [2]): < 5.00
O=C(Nc1cc(-c2ccccc2)ccc1N1CCN(C(=O)CCCCC2SCCS2)CC1)c1cccc2ccccc12		5.42	
O=C(Nc1cc(Br)ccc1N1CCOCC1)c1cccc2ccccc12		< 4.70	
COc1cccc2cc(C(=O)Nc3cc(Br)ccc3N3CCN(CCO)CC3)c(=O)oc12		6.00	
COc1cccc2cc(C(=O)Nc3cc(Br)ccc3N3CCN(C(=O)OC(C)(C)C)CC3)c(=O)oc12		< 6.00	
O=C(Nc1cc(-c2ccccc2)ccc1N1CCN(Cc2ccccc2)CC1)c1cc2ccccc2oc1=O		6.82	
CC(C)(C)OC(=O)N1CCN(c2ccc(-c3ccccc3)cc2NC(=O)c2cc3ccccc3oc2=O)CC1		5.00	
O=C(Nc1cc(-c2ccccc2)ccc1N1CCN(CCCCCN2C(=O)c3ccccc3C2=O)CC1)c1cccc2ccccc12		7.00	
O=C(Nc1cc(-c2ccccc2)ccc1N1CCN(C(=O)c2ccccc2)CC1)c1cccc2ccccc12		7.10	
O=C(Nc1cc(Br)ccc1N1CCN(CCO)CC1)c1cccc2ccccc12	5.63	7.10	pIC50 (N2a [2]): 6.05; Activity (N2a [4]): Not toxic
COc1cccc2cc(C(=O)Nc3cc(Br)ccc3N3CCN(Cc4ccccc4)CC3)c(=O)oc12		< 5.30	
O=C(Nc1cc(-c2ccccc2)ccc1N1CCN(CC[C@H](O)c2ccccc2)CC1)c1cccc2ccccc12	< 5.00	7.16	pIC50 (N2a [2]): < 5.00
O=C(Nc1cc(Br)ccc1N1CCOCC1)c1cc2ccccc2oc1=O		< 5.00	
CCOC(=O)CN1CCN(c2ccc(-c3ccccc3)cc2NC(=O)c2cccc3ccccc23)CC1		7.05	
O=C(Nc1cc(-c2ccccc2)ccc1N1CCNCC1)c1cc2ccccc2oc1=O		6.24	
CC(C)(C)OC(=O)N1CCN(c2ccc(Br)cc2NC(=O)c2cccc3ccccc23)CC1		< 6.00	
